The text below walks through data of paper PMC10215804, “Exploring Alternative Pathways to Target Bacterial Type II Topoisomerases Using NBTI Antibacterials: Beyond Halogen-Bonding Interactions” (Antibiotics, 2023).

Series [1] addresses T1, S. aureus DNA gyrase (Staphylococcus aureus, UniProt P20831).
T1 construct: purchased Inspiralis (Norwich, UK)
The series can be described thus: biochemical. The conditions noted are these: supercoiling inhibition; mean of two independent measurements ± SD. How it is done:
(§1) To determine the IC50 values of the compounds for S. aureus and E. coli, a DNA gyrase supercoiling high-throughput plate assay and a topoIV relaxation high-throughput plate assay were performed. Assay kits and black streptavidin-coated 96-well microtiter plates are available from Inspiralis (Norwich, UK). For pre-screening, an inhibitor concentration of 100 μM was used. […] A nonlinear regression-based fit of the inhibition curves was used, with the log [inhibitor] versus slope of the reaction variables (four parameters) and a symmetric equation. […] To determine IC50 values, two independent repetitions were performed and the average was calculated.

For a further series, the target named is T2, S. aureus topoIV (Staphylococcus aureus, UniProt P0C1U9).
T2 construct: purchased Inspiralis (Norwich, UK)
T2 sequence (P0C1U9 whole entry): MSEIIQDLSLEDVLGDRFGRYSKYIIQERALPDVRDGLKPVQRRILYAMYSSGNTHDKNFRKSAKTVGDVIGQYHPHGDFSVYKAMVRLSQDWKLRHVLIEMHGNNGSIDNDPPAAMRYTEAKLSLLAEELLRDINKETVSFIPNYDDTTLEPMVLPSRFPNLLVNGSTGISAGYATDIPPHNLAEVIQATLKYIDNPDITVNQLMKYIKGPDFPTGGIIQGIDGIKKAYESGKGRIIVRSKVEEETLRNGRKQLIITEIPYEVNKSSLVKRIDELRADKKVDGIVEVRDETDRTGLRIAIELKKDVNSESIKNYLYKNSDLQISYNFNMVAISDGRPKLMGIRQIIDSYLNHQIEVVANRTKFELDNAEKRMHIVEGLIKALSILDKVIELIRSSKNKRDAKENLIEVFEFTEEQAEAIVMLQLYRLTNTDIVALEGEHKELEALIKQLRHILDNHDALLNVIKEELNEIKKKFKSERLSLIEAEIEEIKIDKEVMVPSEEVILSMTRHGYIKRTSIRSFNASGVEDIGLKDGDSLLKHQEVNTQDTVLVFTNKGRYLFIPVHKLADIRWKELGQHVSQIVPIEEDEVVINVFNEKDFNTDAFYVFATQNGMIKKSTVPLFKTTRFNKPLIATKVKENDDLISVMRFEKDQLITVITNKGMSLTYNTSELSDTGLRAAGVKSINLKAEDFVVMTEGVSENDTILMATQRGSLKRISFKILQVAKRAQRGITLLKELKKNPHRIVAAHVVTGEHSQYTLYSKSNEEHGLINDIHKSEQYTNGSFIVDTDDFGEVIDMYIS
T2 sequence (P0C1S7 whole entry partner): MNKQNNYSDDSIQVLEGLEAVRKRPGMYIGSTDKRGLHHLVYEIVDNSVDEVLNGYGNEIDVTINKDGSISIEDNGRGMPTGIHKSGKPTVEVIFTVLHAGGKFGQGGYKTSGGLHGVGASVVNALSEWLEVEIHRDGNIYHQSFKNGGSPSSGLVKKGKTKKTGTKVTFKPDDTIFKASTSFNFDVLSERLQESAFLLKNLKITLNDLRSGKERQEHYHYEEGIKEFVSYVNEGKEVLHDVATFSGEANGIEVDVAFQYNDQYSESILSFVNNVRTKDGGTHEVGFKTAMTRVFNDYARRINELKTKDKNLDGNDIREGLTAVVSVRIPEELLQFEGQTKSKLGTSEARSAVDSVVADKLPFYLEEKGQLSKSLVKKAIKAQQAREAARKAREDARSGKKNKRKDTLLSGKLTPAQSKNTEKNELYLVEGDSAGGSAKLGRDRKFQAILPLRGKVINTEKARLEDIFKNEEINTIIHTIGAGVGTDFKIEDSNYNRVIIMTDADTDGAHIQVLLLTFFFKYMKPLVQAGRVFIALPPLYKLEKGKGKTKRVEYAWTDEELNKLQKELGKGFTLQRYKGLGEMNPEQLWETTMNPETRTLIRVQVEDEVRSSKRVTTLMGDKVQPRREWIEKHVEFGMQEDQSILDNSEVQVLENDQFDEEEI
The series can be described thus: biochemical. Conditions: relaxation inhibition; mean of two independent measurements ± SD. How it is done:
as §1

The target of the next series is T3, E. coli DNA gyrase (Escherichia coli, UniProt P0AES4).
T3 construct: purchased Inspiralis (Norwich, UK)
The series can be described thus: DNA gyrase supercoiling inhibition assay (high-throughput plate assay). Format: biochemical. The procedure:
as §1

For a further series, the target named is T4, E. coli topoIV (Escherichia coli, UniProt P0AFI2).
T4 construct: purchased Inspiralis (Norwich, UK)
The series can be described thus: topoIV relaxation inhibition assay (high-throughput plate assay). The class given is biochemical. How it is done:
as §1

Series [2] concerns the target T5, human topoisomerase IIα (Homo sapiens, UniProt P11388).
T5 construct: purchased Inspiralis (Norwich, UK)
The series can be described thus: human topoisomerase II alpha relaxation high-throughput assay (selectivity). The class given is biochemical. Conditions: residual activity at 100 µM compound; mean ± SD, two independent experiments; read-out: Human TopoIIα (% RA at 100 µM). The procedure: For selectivity determination, a human topoisomerase II alpha relaxation high-throughput assay was used. The assay kits and black streptavidin-coated 96-well microtiter plates are available from Inspiralis (Norwich, UK). Two independent measurements were performed with an inhibitory concentration of 100 µM. Raw data were calculated as the mean ± SD percentage of the residual enzyme activity.

In the next series the test system is A. baumannii. The series can be described thus: MIC, broth microdilution. The class given is cell-based. The conditions noted are these: Acinetobacter baumannii. How it is done:
(§2) For the determination of minimum inhibitory concentrations (MIC), the broth microdilution method was used in 96-well plate format, according to the guidelines of the Clinical and Laboratory Standards Institute and the recommendations of the European Committee on Antimicrobial Susceptibility Testing (EUCAST). The dilutions of the bacterial suspension of the specific bacterial strain, corresponding to the 0.5 McFarland turbidity standard, were prepared with […] Mueller–Hinton broth with TES (Thermo Fisher Scientific) to obtain an end inoculum of 10^5 CFU/mL. The compounds were dissolved in DMSO and mixed with the inoculum. […] The MIC was determined as the lowest concentration of antibiotic that prevented visible bacterial growth. Tetracycline was used as a positive control on each test plate.
(Dilution methods test growth across graded concentrations, often in twofold steps.)

Series [3] has as its system E. coli (ATCC 25922). The series can be described thus: MIC, broth microdilution. The class given is cell-based. The conditions noted are these: Escherichia coli, ATCC25922. The procedure:
as §2

Series [4] concerns E. coli D22. The series can be described thus: MIC, broth microdilution. The class given is cell-based. The conditions noted are these: Escherichia coli, D22. The procedure: as §2
In a further series the test system is E. coli ESBL QA-11.3. The series can be described thus: MIC, broth microdilution. Format: cell-based. Conditions: Escherichia coli, ESBLQA11.3. The procedure:
as §2

In series [5] the test system is E. coli N43 (CGSC# 5583). Nature of the series: MIC, broth microdilution. Format: cell-based. Conditions: Escherichia coli. The procedure:
as §2

For series [6], the system named is E. faecalis RDK 057. The series can be described thus: MIC, broth microdilution. Format: cell-based. The conditions noted are these: Enterococcus faecalis, RDK057. How it is done: as §2
A further series concerns K. pneumoniae. Nature of the series: MIC, broth microdilution. The class given is cell-based. The conditions noted are these: Klebsiella pneumoniae. How it is done:
as §2

Series [7] has as its system P. aeruginosa RDK 184. The series can be described thus: MIC, broth microdilution. The conditions noted are these: Pseudomonas aeruginosa. The class given is cell-based. The procedure: as §2
In series [8] the test system is S. aureus (ATCC 29213). The series can be described thus: MIC, broth microdilution. Format: cell-based. Conditions: Staphylococcus aureus, ATCC29213. The procedure: as §2
Series [9] has as its system VRE. The series can be described thus: MIC, broth microdilution. The class given is cell-based. Conditions: Enterococcus. How it is done: as §2
The test system of the next series is MRSA (QA-11.2). The series can be described thus: MIC, broth microdilution. The conditions noted are these: Staphylococcus aureus. The class given is cell-based, S. aureus. How it is done:
as §2

The subject of series [10] is MRSA (QA-11.7). Nature of the series: MIC, broth microdilution. Format: cell-based, S. aureus. Conditions: Staphylococcus aureus. How it is done:
as §2

In a further series the test system is MRSA(QA-12.1). Nature of the series: MIC, broth microdilution. Format: cell-based, S. aureus. The conditions noted are these: Staphylococcus aureus. How it is done: as §2
Series [11] is described as follows: Metabolic activity assessment (cytotoxicity), CellTiter 96 Aqueous One. Format: cell-based. Conditions: human, HepG2 cells (ATCC HB-8065); 72 h treatment; means of three independent measurements ± SD. How it is done: HUVEC (ATCC® CRL-1730™) and HepG2 (ATCC® HB-8065™) cell lines were cultured in Dulbecco’s Modified Eagle Medium (DMEM; Sigma-Aldrich, St. Louis, MO, USA) supplemented with 10% heat-deactivated FBS (Gibco, Grand Island, NE, USA), 2 mM L-glutamine, 100 U/mL penicillin, 100 μg/mL streptomycin (all from Sigma-Aldrich, St. Louis, MO, USA) in a humidified chamber at 37 °C and 5% CO2. The experiments were carried out on passages 4–7 for both cell lines. The tested compounds were dissolved in DMSO and further diluted in culture medium to a desired final concentration. The cells were then seeded into 96-well plates at 5 × 10^4 cells/mL (100 μL/well) or 8 × 10^4 cells/mL (100 μL/well) for HUVEC and HepG2, respectively. The cells were then incubated for 24 h to allow attachment onto the wells. The cells were treated with 1 μM and 50 μM of each compound of interest, or the corresponding vehicle as control. […] Their metabolic activity was assessed after 72 h treatment using a CellTiter 96 Aqueous One Solution Cell Proliferation Assay (Promega, Madison, WI, USA), in accordance with the manufacturer’s instructions. The absorbance was measured at 492 nm on an automated microplate reader, Tecan Spark (Tecan Group Ltd., Männedorf, CH, Switzerland). Data are presented as the percentage of metabolic activity of control cells stimulated with vehicle, or as an IC50 value (mean ± SD) from three independent experiments, each conducted in triplicate (for screening) or duplicate (for IC50 determination). IC50 values were calculated using a non-linear regression model and with Graph Pad Prism 9 software.

Series [12] has as its target T1, S. aureus DNA gyrase. Conditions: supercoiling inhibition; cited from earlier work.
The target of series [13] is T5, human topoisomerase IIα. The conditions noted are these: residual activity at 100 µM compound; cited from earlier work.
Series [14] has as its system S. aureus (ATCC 29213). The conditions noted are these: cited from earlier work.
Series [15] deals with MRSA (QA-11.7). The conditions noted are these: cited from earlier work.
Series [16] has as its system E. coli (ATCC 25922). The conditions noted are these: cited from earlier work.
Series [17] concerns E. coli D22. The conditions noted are these: lpxC mutation; cited from earlier work.
Series [18] relates to E. coli N43 (CGSC# 5583). The conditions noted are these: AcrA knockout; cited from earlier work.
The test system of series [19] is P. aeruginosa RDK 184. Conditions: cited from earlier work.
Series [20] concerns E. faecalis RDK 057. The conditions noted are these: cited from earlier work.
In series [21] the test system is VRE. The conditions noted are these: cited from earlier work.

≈ marks a conversion by molar mass, not a printed value. Like-named read-outs stand apart in the source and are kept apart here. Bounds are passed on as bounds.

T1 sequence (P20831 whole entry): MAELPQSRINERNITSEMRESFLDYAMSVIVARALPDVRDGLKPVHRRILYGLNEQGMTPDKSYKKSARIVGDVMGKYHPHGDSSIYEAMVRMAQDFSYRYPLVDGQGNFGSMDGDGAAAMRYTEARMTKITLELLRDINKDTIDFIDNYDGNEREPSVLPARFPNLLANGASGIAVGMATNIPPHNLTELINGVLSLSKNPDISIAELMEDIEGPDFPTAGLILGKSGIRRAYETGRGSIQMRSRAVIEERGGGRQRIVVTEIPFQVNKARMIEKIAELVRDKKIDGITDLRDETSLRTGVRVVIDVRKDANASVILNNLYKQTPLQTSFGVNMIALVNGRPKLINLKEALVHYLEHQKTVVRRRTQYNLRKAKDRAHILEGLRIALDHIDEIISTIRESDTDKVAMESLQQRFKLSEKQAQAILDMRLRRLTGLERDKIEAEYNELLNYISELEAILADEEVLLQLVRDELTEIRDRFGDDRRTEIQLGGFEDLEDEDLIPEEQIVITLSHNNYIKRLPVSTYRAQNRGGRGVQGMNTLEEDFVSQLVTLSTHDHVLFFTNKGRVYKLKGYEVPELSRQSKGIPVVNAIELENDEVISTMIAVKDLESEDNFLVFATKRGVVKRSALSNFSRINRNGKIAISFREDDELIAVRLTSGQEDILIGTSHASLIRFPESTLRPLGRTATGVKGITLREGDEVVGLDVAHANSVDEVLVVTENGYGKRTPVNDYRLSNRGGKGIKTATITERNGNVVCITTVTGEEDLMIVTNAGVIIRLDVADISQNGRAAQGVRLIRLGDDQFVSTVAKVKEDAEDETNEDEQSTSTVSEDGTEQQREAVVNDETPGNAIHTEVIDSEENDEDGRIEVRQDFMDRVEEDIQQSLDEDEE
T1 sequence (P0A0K8 whole entry partner): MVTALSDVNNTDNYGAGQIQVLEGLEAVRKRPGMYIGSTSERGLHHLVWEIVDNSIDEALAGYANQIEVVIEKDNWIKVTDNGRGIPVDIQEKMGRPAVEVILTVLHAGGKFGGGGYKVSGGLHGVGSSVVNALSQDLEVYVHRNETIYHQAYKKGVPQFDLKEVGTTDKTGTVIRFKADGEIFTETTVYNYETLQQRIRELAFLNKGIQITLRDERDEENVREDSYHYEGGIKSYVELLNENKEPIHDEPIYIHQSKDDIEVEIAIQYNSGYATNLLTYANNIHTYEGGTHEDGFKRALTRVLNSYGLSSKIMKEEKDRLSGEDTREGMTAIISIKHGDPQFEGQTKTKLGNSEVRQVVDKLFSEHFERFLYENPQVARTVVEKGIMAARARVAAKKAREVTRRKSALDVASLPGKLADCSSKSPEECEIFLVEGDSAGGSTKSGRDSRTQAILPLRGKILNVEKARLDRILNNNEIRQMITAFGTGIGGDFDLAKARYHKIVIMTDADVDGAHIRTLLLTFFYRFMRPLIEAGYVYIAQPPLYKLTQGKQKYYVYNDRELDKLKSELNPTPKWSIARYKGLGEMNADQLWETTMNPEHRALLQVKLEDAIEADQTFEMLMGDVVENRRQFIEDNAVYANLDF
T5 sequence (P11388 whole entry): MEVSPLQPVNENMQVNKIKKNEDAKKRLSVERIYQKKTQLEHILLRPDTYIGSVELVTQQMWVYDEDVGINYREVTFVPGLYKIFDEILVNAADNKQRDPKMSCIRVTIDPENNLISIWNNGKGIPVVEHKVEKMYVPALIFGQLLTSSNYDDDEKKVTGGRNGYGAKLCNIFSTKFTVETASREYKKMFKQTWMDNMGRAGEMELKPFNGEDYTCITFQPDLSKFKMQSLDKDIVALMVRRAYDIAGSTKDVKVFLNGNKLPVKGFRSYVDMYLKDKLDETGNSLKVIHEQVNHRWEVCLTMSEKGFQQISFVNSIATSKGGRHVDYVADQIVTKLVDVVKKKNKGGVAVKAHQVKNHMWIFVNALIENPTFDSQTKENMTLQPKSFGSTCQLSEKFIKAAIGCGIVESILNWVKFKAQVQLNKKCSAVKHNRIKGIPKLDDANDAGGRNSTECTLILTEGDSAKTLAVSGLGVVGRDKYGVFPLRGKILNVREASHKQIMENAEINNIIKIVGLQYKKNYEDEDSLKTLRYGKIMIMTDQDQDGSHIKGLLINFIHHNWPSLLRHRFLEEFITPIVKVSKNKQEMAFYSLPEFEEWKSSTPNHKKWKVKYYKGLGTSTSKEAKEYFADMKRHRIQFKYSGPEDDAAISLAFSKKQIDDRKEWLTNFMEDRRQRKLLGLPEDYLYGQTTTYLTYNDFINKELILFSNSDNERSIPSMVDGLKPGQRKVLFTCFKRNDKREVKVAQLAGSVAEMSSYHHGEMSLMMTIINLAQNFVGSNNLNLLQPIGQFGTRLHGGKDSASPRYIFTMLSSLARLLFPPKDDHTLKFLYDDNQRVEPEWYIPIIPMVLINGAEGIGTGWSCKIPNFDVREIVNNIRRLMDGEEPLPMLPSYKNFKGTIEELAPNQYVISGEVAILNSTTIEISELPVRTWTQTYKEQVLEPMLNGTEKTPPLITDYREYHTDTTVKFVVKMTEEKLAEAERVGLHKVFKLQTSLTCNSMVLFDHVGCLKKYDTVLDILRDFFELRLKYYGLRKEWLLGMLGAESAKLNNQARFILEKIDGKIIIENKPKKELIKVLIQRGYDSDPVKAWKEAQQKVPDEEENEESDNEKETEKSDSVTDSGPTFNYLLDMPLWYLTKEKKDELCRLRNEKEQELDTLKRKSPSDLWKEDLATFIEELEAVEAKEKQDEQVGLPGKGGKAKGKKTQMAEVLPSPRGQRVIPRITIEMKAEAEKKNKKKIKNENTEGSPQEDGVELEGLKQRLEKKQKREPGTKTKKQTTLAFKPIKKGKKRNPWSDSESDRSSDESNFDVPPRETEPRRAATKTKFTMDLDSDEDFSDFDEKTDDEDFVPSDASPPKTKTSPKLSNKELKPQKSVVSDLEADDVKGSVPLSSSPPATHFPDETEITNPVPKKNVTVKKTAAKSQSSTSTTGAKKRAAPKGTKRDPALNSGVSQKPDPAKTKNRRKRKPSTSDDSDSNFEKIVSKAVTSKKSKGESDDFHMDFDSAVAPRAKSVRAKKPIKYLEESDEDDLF

On to `COc1ccc2nccc(CCN3CCC(NCc4ccc(Br)c(C(F)(F)F)c4)CC3)c2n1` [Compound 12, N-(4-Bromo-3-(trifluoromethyl)benzyl)-1-(2-(6-methoxy-1,5-naphthyridin-4-yl)ethyl)piperidin-4-amine], for which the IC50 (in general, the concentration at which inhibition is half-maximal) against S. aureus DNA gyrase [1] was 62 nM; on S. aureus topoIV, 345 ± 25 nM; at E. coli DNA gyrase it was 84 ± 20 nM; at E. coli topoIV, 23 ± 6 nM. The remaining activity at 100 µM at human topoisomerase IIα [2] was found to be 102%. Also, the MIC (usually the smallest concentration in the dilution series that meets the test's criterion for growth inhibition) in the series on A. baumannii (Table S3, read-out: MIC (μM) A. baumannii) was 5.12 µM; in the series with A. baumannii (read-out: MIC A. baumannii), 2 µg/mL; in the series with E. coli (ATCC 25922) [3] (Table S3, read-out: MIC (μM) E. coli (ATCC 25922)), 10.2 µM; in the series with E. coli (ATCC 25922) [3] (read-out: MIC E. coli (ATCC 25922)) it was 4 µg/mL; in the series on E. coli D22 [4] (Table S3, lpxC mutation, read-out: MIC (μM) E. coli D22) it was 0.64 µM; in the series on E. coli D22 [4] (lpxC mutation that increases membrane permeability, read-out: MIC E. coli D22), 0.25 µg/mL. Besides, the MIC in the series with E. coli ESBL QA-11.3 (Table S3, read-out: MIC (μM) E. coli ESBL QA:11.3) is 10.2 µM; with E. coli ESBL QA-11.3 (read-out: MIC E. coli ESBL QA-11.3), 4 µg/mL; in the series on E. coli N43 (CGSC# 5583) [5] (read-out: MIC (μM) E. coli N43), 0.161 µM; in the series on E. coli N43 (CGSC# 5583) [5] (read-out: MIC E. coli N43 (CGSC# 5583)), 0.063 µg/mL; in the series with E. faecalis RDK 057 [6] (Table S3, read-out: MIC (μM) E. faecalis DRK 057) it was 1.28 µM; in the series with E. faecalis RDK 057 [6] (read-out: MIC E. faecalis RDK 057), 0.5 µg/mL. The MIC in the series on K. pneumoniae (Table S3, read-out: MIC (μM) K. pneumoniae) was 41 µM; in the series with K. pneumoniae (read-out: MIC K. pneumoniae), 16 µg/mL; in the series with P. aeruginosa RDK 184 [7] (RDK184, 20 h, Table S3, read-out: MIC (μM) P. aeruginosa RDK 184), > 328 µM; in the series on P. aeruginosa RDK 184 [7] (RDK184, read-out: MIC P. aeruginosa RDK 184), > 128 µg/mL; in the series with S. aureus (ATCC 29213) [8] (Table S3, read-out: MIC (μM) S. aureus (ATCC 29213)), 0.082 µM; with S. aureus (ATCC 29213) [8] (read-out: MIC S. aureus (ATCC 29213)), 0.032 µg/mL. The MIC came to 0.64 µM with VRE [9] (Table S3, read-out: MIC (μM) VRE); 0.25 µg/mL in the series with VRE [9] (read-out: MIC VRE); 0.161 µM with MRSA (QA-11.2) (read-out: MIC (μM) MRSA (QA-11.2)); 0.063 µg/mL in the series on MRSA (QA-11.2) (read-out: MIC MRSA (QA-11.2)); 0.161 µM with MRSA (QA-11.7) [10] (read-out: MIC (μM) MRSA (QA-11.7)); 0.063 µg/mL with MRSA (QA-11.7) [10] (strain resistant to cefoxitin, ciprofloxacin, clindamycin, erythromycin, tetracycline, thiamulin, trimethoprim, read-out: MIC MRSA (QA-11.7)). The MIC came out at 0.082 µM in the series with MRSA(QA-12.1) (Table S3, read-out: MIC (μM) MRSA(QA-12.1)) and 0.032 µg/mL in the series on MRSA(QA-12.1) (strain resistant to cefoxitin, gentamicin, kanamycin, rifampicin, streptomycin, sulfamethoxazole, tetracycline, read-out: MIC MRSA(QA-12.1)). Besides, the IC50 at 72 h in series [11] was 12000 ± 1860 nM.

For `COc1ccc2nccc(CCN3CCC(NCc4ccc(Br)cc4)CC3)c2n1` [Compound 1], the IC50 on S. aureus DNA gyrase [12] was 26 ± 10 nM. Further, the “Human TopoIIα (% RA at 100 µM)” value at human topoisomerase IIα [13] is listed as 98 ± 3%. In addition, in the series on S. aureus (ATCC 29213) [14], the “MIC S. aureus (ATCC 29213)” value is recorded as 0.125 µg/mL (≈ 0.274 µM). Besides, in the series with MRSA (QA-11.7) [15], the “MIC MRSA (QA-11.7)” value was 0.5 µg/mL (≈ 1.1 µM). In the series on E. coli (ATCC 25922) [16], the “MIC E. coli (ATCC 25922)” value was 2 µg/mL (≈ 4.39 µM). Besides, in the series with E. coli D22 [17], the “MIC E. coli D22” value is recorded as 0.125 µg/mL (≈ 0.274 µM). Moreover, the “MIC E. coli N43 (CGSC# 5583)” value in the series with E. coli N43 (CGSC# 5583) [18] is 0.125 µg/mL (≈ 0.274 µM). Besides, the “MIC P. aeruginosa RDK 184” value with P. aeruginosa RDK 184 [19] is 128 µg/mL (≈ 281 µM). In the series on E. faecalis RDK 057 [20], the “MIC E. faecalis RDK 057” value is 0.5 µg/mL (≈ 1.1 µM). Further, in the series on VRE [21], the “MIC VRE” value is 2 µg/mL (≈ 4.39 µM).
